Data on four molecules can be found in patent US6048529A, “PVA or PEG conjugates of peptides for epitope-specific immunosuppression” (priority 1995, dated 2000).

For series [1] the following is noted: in vivo; cited from earlier work.
Series [2] has as its system experimental autoimmune myasthenia gravis (EAMG). As to the kind of experiment: Electrophysiological EAMG: EMG during repetitive nerve stimulation after immunization with Torpedo AChR. It counts as in vivo, C57/BL6 mice. The note with it: for proportion of mice showing a decremental response greater than 10%: 5 μg i.p. at 11, 7 and 3 days before immunization with Torpedo AChR, EMG on days 38-39. Here is the method:
Six weeks old C57/BL6 mice were purchased from Charles River Breeding Laboratories (Wilmington, Mass.). Preimmune sera were obtained from the mice for use as controls in subsequent antibody binding assays. […] Then, on day 0, the mice were immunized subcutaneously in one hind footpad and intramuscularly in the same side shoulder with 20 μg of Torpedo AChR in 100 μl emulsion containing equal volumes of complete Freund's adjuvant and PBS. Thirty days later, the mice were immunized with a similar dose of the receptor in the opposite footpad and shoulder. On the 37th day, test bleeds were obtained from the mice for determination of the antibody titers. Electrophysiological studies were performed on the 38th and 39th days. Finally, the mice were sacrificed on the 40th day and lymph node cells were obtained for Electrophysiological Studies To document the electrophysiological evidence of EAMG, amplitudes of serial muscle action potentials were measured by electromyography (EMG) during the repetitive stimulation of the nerve in immunized mice, using the Mystro EMG system (TECA Corporation). A pair of wire electrodes were surgically implanted, encircling the sciatic nerve, two days before EMG. The nerve was stimulated through the implanted electrodes by 3 Hz trains of supramaximal electric current with a duration of 200 microseconds. The corresponding muscle action potentials were recorded with an electrode subcutaneously inserted over the gastrocnemius muscle. A reference electrode was placed at the ankle. Ether inhalation was used during the surgical and recording procedures. […] Students' t-test was used to analyze the differences of amplitude changes between the two groups. A typical myasthenic response of a greater than 10% decrement was considered to constitute an electrophysiological evidence of EAMG. The frequency of electrophysiological EAMG was calculated in each group and analyzed by chi-square test.

The test system of the next series is peptide α125-148. As to the kind of experiment: Radioimmunoassay of anti-AChR antisera: antibody binding to peptide α125-148. The note with it: for binding to peptide α125-148 of antibodies in pooled antisera at serial dilutions (in words): pooled antisera of each group, compared with the other groups. The series is classed as in vivo, C57/BL6 mice. On the procedure:
(§1) Six weeks old C57/BL6 mice were purchased from Charles River Breeding Laboratories (Wilmington, Mass.). Preimmune sera were obtained from the mice for use as controls in subsequent antibody binding assays. After 2-weeks rest, the mice were divided into three groups which received, at eleven, seven and three days before immunization with AChR, an intraperitoneal injection (5 μg in 25 μl of PBS) of either the mPEG-(α125-148) conjugate (Group 1), mPEG-nonsense peptide conjugate (Group 2) or unaltered free peptide α125-148 (Group 3) (FIG. 5). Then, on day 0, the mice were immunized subcutaneously in one hind footpad and intramuscularly in the same side shoulder with 20 μg of Torpedo AChR in 100 μl emulsion containing equal volumes of complete Freund's adjuvant and PBS. Thirty days later, the mice were immunized with a similar dose of the receptor in the opposite footpad and shoulder. On the 37th day, test bleeds were obtained from the mice for determination of the antibody titers. Electrophysiological studies were performed on the 38th and 39th days. Finally, the mice were sacrificed on the 40th day and lymph node cells were obtained for
One mg of the synthetic peptide was dissolved in 50 μl dimethylformamide and then diluted with PBS to 25 μg/ml. A solution of Torpedo AChR in PBS was prepared to contain 2.5 μg/ml. Aliquots (50 μl/well) of the peptide or AChR solutions were added to a 96-well microtiter plate (Falcon Micro Test III flexible assay plate, Becton Dickinson, Oxcard, Calif.) and the plates were incubated at room temperature overnight. After washing 3 times with PBS, the plates were blocked with 0.25% bovine serum albumin (BSA) in PBS (50 μl/well) at 37° C. for 90 minutes. The plates were washed again 5 times with PBS and to each well was added 50 μl of the serum from AChR-immunized mice, pre-diluted with PBS containing 0.10% BSA, and the plates were covered and allowed to stand at room temperature overnight. After 5 washes with PBS, 50 μl of rabbit IgG antibodies (2.5 μg/ml) against mouse IgG and IgM (Accurate Chemical Scientific Corporation, Westbury, N.Y.) was added to each well and the plates were incubated at 37° C. for 3 hours. The plates were then washed 5 times with PBS and ^125 I-labeled protein A (2×10^5 cpm in 50 μl of PBS-0.1% BSA) was added to each well. The plates were incubated for 3 hours at room temperature, after which they were washed and the wells were cut out and counted for bound radioactivity. Pre-immune serum samples, obtained from the mice prior to any experimental treatments, were used as controls to correct for non-specific binding.

A further series relates to whole Torpedo AChR. Briefly: Radioimmunoassay of anti-AChR antisera: antibody binding to whole AChR. Conditions: anti-AChR antisera of pretreated mice, versus control groups. The series is classed as in vivo, C57/BL6 mice. On the procedure:
as §1, with “Finally, the mice were sacrificed on the 40th day and lymph node cells were obtained for” left out
(§2) One mg of the synthetic peptide was dissolved in 50 μl dimethylformamide and then diluted with PBS to 25 μg/ml. […] The plates were incubated for 3 hours at room temperature, after which they were washed and the wells were cut out and counted for bound radioactivity. […]

Another series concerns peptide α45-60. As to the kind of experiment: Radioimmunoassay of anti-AChR antisera: antibody binding to peptide α45-60. Conditions: anti-AChR antisera of pretreated mice, versus control groups. It counts as in vivo, C57/BL6 mice. On the procedure: as §1, with “Finally, the mice were sacrificed on the 40th day and lymph node cells were obtained for” left out
as §2

Another series relates to peptide α182-198. As to the kind of experiment: Radioimmunoassay of anti-AChR antisera: antibody binding to peptide α182-198. The note with it: anti-AChR antisera of pretreated mice, versus control groups. The series is classed as in vivo, C57/BL6 mice. On the procedure: as §1, with “Finally, the mice were sacrificed on the 40th day and lymph node cells were obtained for” left out
as §2

In a further series the test system is lymph node cells (LNC). As to the kind of experiment: T cell proliferation assay of lymph node cells from pretreated, AChR-primed mice. The series is classed as in vivo, C57/BL6 mice. The note with it: LNC 5×10^5 cells/well from pretreated mice after AChR immunization. Here is the method: as §1, with “Thirty days later, the mice were immunized with a similar dose of the receptor in the opposite footpad and shoulder. On the 37th day, test bleeds were obtained from the mice for determination of the antibody titers. Electrophysiological studies were performed on the 38th and 39th days. Finally, the mice were sacrificed on the 40th day and lymph node cells were obtained for” left out
Lymph node cells (LNC) were harvested from the AChR-primed mice of each group ten or eleven days after the last AChR immunization. […] The number of viable cells was determined by vital staining with fluorescein diacetage (Rotman and Papermasters, 1966). […] After incubation for 3 days at 37° C. in a humidified air/CO2 (19:1) atmosphere, the cultures were pulsed (18 hr) with 1 μCi/well [^3 H]-thymidine (Research Products International, Mount Prospect, Ill,) and then harvested on to glass microfiber filters (Whatman, Clinton, N.J.) for counting of radioactivity by liquid scintillation.

[3] abbreviates: anti-AChR antisera of pretreated mice.

“Also recorded” adds a separate entry of the source. Where a SMILES comes first, the peptide text is derived from it. Bridges are numbered along the chain shown (N, C = ends). Where no end group is shown, it is not given here.

Take monomethoxypolyethylene glycol [mPEG]: the “harmful or toxic effects in humans (in words)” value in series [1] is recorded as “does not seem to have any harmful or toxic effects”.

For the molecule `CC[C@H](C)[C@H](NC(=O)CNC(=O)[C@H](CC(C)C)NC(=O)[C@H](CCCCN)NC(=O)[C@H](CCSC)NC(=O)[C@@H](NC(=O)[C@@H]1CSSC[C@H](NC(=O)[C@H](Cc2ccc(O)cc2)NC(=O)[C@H](CO)NC(=O)[C@@H](N)CCCCN)C(=O)N[C@@H](CCC(=O)O)C(=O)N[C@@H]([C@@H](C)CC)C(=O)N[C@@H]([C@@H](C)CC)C(=O)N[C@@H](C(C)C)C(=O)N[C@@H]([C@@H](C)O)C(=O)N[C@@H](Cc2c[nH]cn2)C(=O)N[C@@H](Cc2ccccc2)C(=O)N2CCC[C@H]2C(=O)N[C@@H](Cc2ccccc2)C(=O)N[C@@H](CC(=O)O)C(=O)N[C@@H](CCC(N)=O)C(=O)N[C@@H](CCC(N)=O)C(=O)N[C@@H](CC(N)=O)C(=O)N1)[C@@H](C)O)C(=O)O` [free α125-148, reference compound] (H-KSYCEIIVTHFPFDQQNCTMKLGI-OH; disulfide 4-18), the “proportion of mice showing a decremental response greater than 10%” value in series [2] came out at 56%. Besides, the “antibody response against peptide α125-148 (in words)” value in the series on peptide α125-148 (setting [3]) is “no decrease”. For the same molecule, the “binding to peptide α125-148 of antibodies in pooled antisera at serial dilutions (in words)” value in the series on peptide α125-148 is listed as “consistently greater than the other two controls”.

Take “mPEG-(α125-148): monomethoxypolyethylene glycol (MW 5000) succinate coupled to the N-terminal α-NH2 of Torpedo californica AChR peptide α125-148 ({mPEG 5000 succinate}-KSYCEIIVTHFPFDQQNCTMKLGI; disulfide 4-18 (inferred); UniProt P02710 149-172, looked up, fragment)”: the “proportion of mice showing a decremental response greater than 10%” value in series [2] stood at 20%. Also, the “effect on development of electrophysiological EAMG (in words)” value in series [2] (injection before immunization with whole Torpedo AChR) is “suppresses development of electrophysiological EAMG but the suppression was incomplete; also recorded: suppressed the development of electrophysiological EAMG; also recorded: suppressed the development of experimental autoimmune myasthenia gravis (EAMG)”. The “antibody response against peptide α125-148 (in words)” value in the series with peptide α125-148 (setting [3]) is on record as “significantly decreased; also recorded: specific decrease”. Besides, in the series on peptide α125-148 (anti-AChR antisera of pretreated mice, test bleed day 37), the “antibody binding to peptide α125-148, mean net cpm±standard deviation” value stood at 1414 ±1801 cpm. Moreover, the “binding to peptide α125-148 of antibodies in pooled antisera at serial dilutions (in words)” value in the series with peptide α125-148 is on record as “considerably lower antibody binding; also recorded: consistently lower”. Also, in the series on whole Torpedo AChR, the “antibody response against whole AChR (in words)” value is on record as “no significant suppression; also recorded: not significantly different; also recorded: not altered”. Further, the “antibody response against peptide α45-60 (in words)” value in the series on peptide α45-60 is “no significant suppression; also recorded: not significantly different”. For the same molecule, the “antibody response against peptide α182-198 (in words)” value in the series on peptide α182-198 was “no significant suppression; also recorded: not significantly different”. Also, the “T cell proliferative responses to peptide α125-148, AChR α-chain peptides or whole AChR (in words)” value in the series with lymph node cells (LNC) is recorded as “did not show meaningful differences; also recorded: not detected; also recorded: no detectable changes”.

Consider `CC[N+](C)(C)c1cccc(O)c1` [edrophonium chloride, reference compound], for which the “decremental amplitude after edrophonium chloride” value in series [2] (EAMG-positive mouse with -33% decrement, 3 minutes after i.p. injection of 250 μg, 3 Hz stimulation) is recorded as -13%. Moreover, the “effect on the typical myasthenic decremental response (in words)” value in series [2] (i.p. injection of 250 μg) is “reversible”.
